≈ marks a conversion by molar mass, not a printed value. Where “and” joins values, the source holds several entries; their conditions need not be identical. Identical values can stand only once. Like-named read-outs stand apart in the source and are kept apart here.
Experiments:
[1] = Lipophilicity determination by RP-HPLC (capacity factor k / log k); format: physicochemical; conditions: C18 column, MeOH 70% / H2O 30%, isocratic
Experimental: Hydrophobicities (log P/Clog P) of the compounds 1-5 and 8-14 were calculated using two commercially available programs (ChemDraw Ultra 10.0 and ACD/LogP) and also measured by means of the RP-HPLC determination of capacity factors k with subsequent calculation of log k. The procedure was performed under isocratic conditions with methanol as an organic modifier in the mobile phase using an end-capped non-polar C18 stationary RP column. The results are shown in Table 1 and illustrated in Figure 1.
A Waters Alliance 2695 XE HPLC separation module and a Waters Photodiode Array Detector 2996 (Waters Corp., Milford, MA, USA) were used. A Symmetry® C18 5 μm, 4.6 × 250 mm, Part No. WAT054275 (Waters Corp., Milford, MA, USA) chromatographic column was used. The HPLC separation process was monitored by Empower™ 2 Chromatography Data Software, Waters 2009 (Waters Corp., Milford, MA, USA). A mixture of MeOH p.a. (70%) and H2O-HPLC – Mili-Q Grade (30%) was used as a mobile phase. The total flow of the column was 1.0 mL/min, injection volume 30 μL, column temperature 30 °C and sample temperature 10°C. The detection wavelength of 210 nm was chosen. The KI methanolic solution was used for the dead time (tD) determination. Retention times (tR) were measured in minutes. The capacity factors k were calculated using the Empower™ 2 Chromatography Data Software according to formula k = (tR - tD)/tD, where tR is the retention time of the solute, whereas tD denotes the dead time obtained using an unretained analyte. Log k, calculated from the capacity factor k, is used as the lipophilicity index converted to log P scale.

[2] = test system: photosynthetic electron transport (PET) in spinach chloroplasts; assay: Inhibition of photosynthetic electron transport (PET) in spinach chloroplasts, DCPIP photoreduction; format: biochemical, Spinacia oleracea L.; conditions: DCPIP photoreduction, pH 7.2
Experimental: Chloroplasts were prepared from spinach (Spinacia oleracea L.) according to Masarovicova and Kralova. The inhibition of photosynthetic electron transport (PET) in spinach chloroplasts was determined spectrophotometrically (Genesys 6, Thermo Scientific, USA), using an artificial electron acceptor 2,6-dichlorophenol-indophenol (DCIPP) according to Kralova et al., and the rate of photosynthetic electron transport was monitored as a photoreduction of DCPIP. The measurements were carried out in phosphate buffer (0.02 mol/L, pH 7.2) containing sucrose (0.4 mol/L), MgCl2 (0.005 mol/L) and NaCl (0.015 mol/L). The chlorophyll content was 30 mg/L in these experiments and the samples were irradiated (~100 W/m^2) from 10 cm distance with a halogen lamp (250 W) using a 4 cm water filter to prevent warming of the samples (suspension temperature 22 °C). The studied compounds were dissolved in DMSO due to their limited water solubility.

Absidia corymbifera 272 = assay: In vitro anti-fungal susceptibility, broth microdilution; format: cell-based
Experimental: (§1) The broth microdilution test was used for the assessment of in vitro anti-fungal activity of the synthesized compounds against Absidia corymbifera 272 (AC) and Trichophyton mentagrophytes 445 (TM). Fluconazole (FLU) was used as the standard since it is a clinically used anti-mycotic drug. The procedure was performed with a two-fold dilution of the compounds in […]., Prague, Czech Republic) buffered to pH 7.0 with 0.165 mol of 3-morpholino-propane-1-sulfonic acid (MOPS, Sigma, Germany). […] Drug-free controls were included. […] The values of the minimum inhibitory concentration (MICs) were determined after 24 and 48 h of static incubation at 35 °C. For T. mentagrophytes, the final MICs were determined after 72 and 120 h of incubation.

[3] = test system: Trichophyton mentagrophytes 445; assay: as above; format: cell-based; conditions: MIC = IC50 value, NA = no significant activity
Experimental: as §1

[4] = test system: methicilin resistant Staphylococcus aureus H 5996/08; assay: In vitro anti-bacterial susceptibility, Mueller-Hinton broth; format: cell-based; conditions: MRSA, methicillin-resistant Staphylococcus aureus, MIC = IC90 value, NA = no significant activity
[5] = test system: Staphylococcus epidermidis H 6966/08; assay: as above; format: cell-based; conditions: MIC = IC90 value, NA = no significant activity
[6] = test system: M. avium paratuberculosis ATCC19698; assay: In vitro anti-mycobacterial evaluation, alamarBlue; format: cell-based; conditions: 7 days, NA = no significant activity
[7] = parameters: method as in PMID 1151976; conditions: parameter of the substituents in the anilide part; cited from earlier work
[8] = test system: Mycobacterium avium complex CIT19/06; assay: In vitro anti-mycobacterial evaluation, alamarBlue; conditions: 5 days, NA = no significant activity
Experimental: (§2) Clinical isolates of Mycobacterium avium complex CIT19/06 (MAC), M. avium paratuberculosis ATCC19698 (MAP), and M. kansasii CIT11/06 (MK) were grown in Middlebrook broth (MB), supplemented with Oleic, Albumin, Dextrose, Catalase supplement (OADC, Becton Dickinson, UK). […] At log phase growth, culture (10 mL) was centrifuged at 15,000 rpm/20 min using a bench top centrifuge (Model CR 4-12 Jouan Inc., UK). Following removal of the supernatant, the pellet was washed in fresh Middlebrook 7H9GC broth and re-suspended in fresh supplemented MB (10 mL). The turbidity was adjusted to match McFarland standard No. 1 (3 × 10^8 cfu) with MB broth. A further 1:20 dilution of the culture was then performed in MB broth.
(§3) The anti-microbial susceptibility of all three mycobacterial species was investigated in a 96-well plate format. […] Each evaluated compound (100 µL) was incubated with each of the mycobacterial species (100 µL). […] Following incubation, a 10% addition of alamarBlue (AbD Serotec) was mixed into each well and readings at 570 nm and 600 nm were taken, initially for background subtraction and subsequently after 24 h re-incubation. […] For non-interfering compounds, a blue colour in the well was interpreted as an absence of growth and a pink colour was scored as growth. […]

M. kansasii CIT11/06 = assay: In vitro anti-mycobacterial evaluation, alamarBlue; conditions: 5 days, NA = no significant activity
Experimental: as §2, §3

[9] = test system: photosynthetic apparatus of spinach chloroplasts (PS 2 / PS 1); assay: Site of action: restoration of PET by artificial electron donors (DPC, DCPIPH2); format: biochemical, Spinacia oleracea L.
Experimental: To further determine the site of action of the studied compounds, experiments with 1,5-diphenylcarbazide (DPC) were performed. DPC is an artificial electron donor for PS 2 with a known site of action in the Z^•/D^• intermediate. The site of action of the artificial electron acceptor 2,6-dichlorophenol-indophenol (DCPIP) used for monitoring the Hill reaction is plastoquinone on the acceptor side of PS 2 [51]. Thus, if the part of the photosynthetic electron transport chain between manganese cluster and Z/D is inhibited, then DPC will restore PET through PS 2.

[10] = test system: photosynthetic apparatus of spinach chloroplasts; assay: EPR spectra of treated spinach chloroplasts; format: biochemical, Spinacia oleracea L.; conditions: 0.05 M of compound, under irradiation, versus untreated chloroplasts
Experimental: Experiments were then performed to determine the site of action of the studied compounds in the photosynthetic apparatus. In Figure 2, EPR spectra of untreated chloroplasts and those treated with the very effective PET inhibitor, compound 3 (Table 2), are presented. The EPR spectrum of untreated chloroplasts recorded in the dark consists of the typical signal IIslow (g = 2.0046, ΔBpp= 2 mT, see Figure 2A - full line). An increase of EPR signal intensity in the light represents signal IIvery fast (g = 2.0046, ΔBpp= 2 mT; in Figure 2A it is the difference between dotted and full lines). These EPR signals belong to the intermediates D^• and Z^• respectively, which are tyrosine radicals situated in the 161st positions in D2 (for D) and D1 (for Z) proteins at the donor side of PS 2 [48, 49]. […]
EPR spectra were registered by the equipment ERS 230 (ZWG, Acad. Sci., Berlin, Germany), which operates in X-band (~9.3 GHz), with modulation amplitude 0.5 mT and microwave power 5 mW at room temperature. The samples containing chlorophyll (3.2 g/L) were measured in a flat quartz cell and their irradiation (~400 μE/m^2s PAR) was carried out directly in the resonance cavity with a 250 W halogen lamp from 0.5 m distance through 5 cm water filter.

[11] = test system: photosynthetic electron transport (PET) in spinach chloroplasts; parameters: method as in earlier work; conditions: standard, read-out: PET inhibition IC50; cited from earlier work
[12] = Lichtheimia corymbifera, 272, 24 h, read-out: MIC AC 24 h
[13] = Lichtheimia corymbifera, 272, 48 h, read-out: MIC AC 48 h
[14] = H6966/08, 24 h, read-out: MIC SE 24 h
[15] = H6966/08, 48 h, read-out: MIC SE 48 h

SMILES	log k [1]	IC50 [2]	MIC (Absidia corymbifera 272; [12])	MIC (Absidia corymbifera 272; [13])	MIC ([3]; 72 h, read-out: MIC TM 72 h)	MIC ([3]; 120 h, read-out: MIC TM 120 h)	MIC ([4]; 24 h, read-out: MIC MRSA 24 h)	MIC ([4]; 48 h, read-out: MIC MRSA 48 h)	MIC [5, 14]	MIC [5, 15]	MIC/IC90 MAP [6]	MR (bulk parameter, reflecting bulkiness) [7]	σ (Hammett's parameter) [7]	MIC/IC90 MAC [8]	MIC/IC90 MK (M. kansasii CIT11/06)	restoration of PET through PS 1 after addition of DCPIPH2 ([9]; DCPIPH2 40 μmol/L added to treated chloroplasts)	restoration of PET through PS 2 after addition of DPC ([9]; DPC 2 mmol/L added to treated chloroplasts)	intensity of the EPR signal (signal I) in irradiated chloroplasts [10]	IC50 [11]
Cc1ccccc1NC(=O)c1ccccc1O [Compound 1, 2-Hydroxy-N-(2-methylphenyl)benzamide]	0.6661	2.7 µM	62.5 µM (≈ 14.2 µg/mL)	250 µM (≈ 56.8 µg/mL)	62.5 µM (≈ 14.2 µg/mL)	125 µM (≈ 28.4 µg/mL)	125 µM (≈ 28.4 µg/mL)	250 µM (≈ 56.8 µg/mL)	125 µM (≈ 28.4 µg/mL)	250 µM (≈ 56.8 µg/mL)	250 µg/mL (≈ 1100 µM)	4.7	0.10	250 µg/mL (≈ 1100 µM)	125 µg/mL (≈ 550 µM)	–	–	–	–
NNC(=O)c1ccncc1 [INH, Isoniazid, reference compound]	–	–	–	–	–	–	–	–	–	–	>250 µg/mL	–	–	<10 µg/mL	<10 µg/mL	–	–	–	–
COc1ccccc1NC(=O)c1ccccc1O [Compound 3, 2-Hydroxy-N-(2-methoxyphenyl)benzamide]	0.6770	1.6 µM	125 µM (≈ 30.4 µg/mL)	125 µM (≈ 30.4 µg/mL)	125 µM (≈ 30.4 µg/mL)	125 µM (≈ 30.4 µg/mL)	500 µM (≈ 122 µg/mL)	> 500 µM	> 500 µM	> 500 µM	–	6.5	0.00	–	–	completely restored	not restored	marked increase	–
CN(C)C(=O)Nc1ccc(Cl)c(Cl)c1 [DCMU, 3-(3,4-dichlorophenyl)-1,1-dimethylurea]	–	–	–	–	–	–	–	–	–	–	–	–	–	–	–	–	–	–	~1.9 µM and 1.9 µM
